From patent US7786141B2 (Vertex Pharmaceuticals Incorporated, priority 2004, dated 2010)

Key:
M4 muscarinic receptor = target: T1, M4 muscarinic receptor (Homo sapiens, UniProt P08173); test: Functional mobilization of intracellular calcium (FLIPR) in M4-CHO cells; type: cell-based; conditions: M4 receptor, calcium mobilization; for Emax: read-out: M4 Efficacy
T1 construct: expressed in transfected cells; host or cells: CHO (M4-CHO)
T1 sequence (P08173 1-479): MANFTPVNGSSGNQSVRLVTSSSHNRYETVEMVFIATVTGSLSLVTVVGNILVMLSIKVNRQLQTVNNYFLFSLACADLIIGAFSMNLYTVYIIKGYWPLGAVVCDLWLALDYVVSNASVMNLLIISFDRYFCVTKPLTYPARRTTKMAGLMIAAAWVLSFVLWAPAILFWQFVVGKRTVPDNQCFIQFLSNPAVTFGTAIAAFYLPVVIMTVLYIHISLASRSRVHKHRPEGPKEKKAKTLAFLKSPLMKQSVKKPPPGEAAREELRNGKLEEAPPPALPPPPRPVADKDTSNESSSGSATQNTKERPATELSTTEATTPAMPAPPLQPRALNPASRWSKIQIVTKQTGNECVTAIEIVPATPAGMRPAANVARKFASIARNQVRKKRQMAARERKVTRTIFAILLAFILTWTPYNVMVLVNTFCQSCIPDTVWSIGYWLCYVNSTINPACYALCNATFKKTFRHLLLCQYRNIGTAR
Method: (§1) Functional Mobilization of Intracellular Calcium to Determine Muscarinic Receptor Activity:
(§2) CHO cells expressing muscarinic receptors (M1 to M5) are grown as monolayers in tissue culture flasks at 37° C. in a humidified atmosphere containing 5% CO2 and passaged every 3-5 days. The growth media is Dulbecco's modified eagles medium (DMEM, Gibco Cat# 12430-054), containing 25 mM Hepes and supplemented with Fetal Bovine Serum (Hyclone, cat# SH30071.03), 0.1 mM of MEM non-essential amino acids (GIBCO, Cat# 11140-050), 1 mM MEM Sodium Pyruvate (GIBCO Cat# 11360-070) and 100 units/ml of Penicillin G and 100 μg/ml of Streptomycin (GIBCO Cat# 15140-122). The recombinant muscarinic receptor cell lines are grown under antibiotic pressure with media containing 25 μg/ml zeocin and 500 μg/ml G418 (M1-CHO), 4 μg/ml puromycin, 50 μg/ml zeocin and 2.5 μg/ml blasticidin (M2 and M4-CHO) or 50 μg/ml zeocin and 4 μg/ml puromycin (M3 and M5-CHO).
(§3) Cells are harvested at 80-90% confluence using Versene (GIBCO Cat# 15040-066), collected by centrifugation and seeded 18-24 hrs prior to running the calcium assay at a density of 5,000 cells/well in back-walled, clear-bottomed 384-well plates (BD Biocoat, poly-D-lysine, Cat#356663). The day of the experiment, the cells are washed with a plate washer (Bioteck Instruments, ELX 405) using bath 1 buffer (140-mM NaCl, 4.5-mM KCl, 2-mM CaCl2, 1-mM MgCl2, 10-mM Hepes-Na, 10-mM Glucose, pH 7.4, with NaOH) containing 1 mM Probenecid. Next, the calcium dye Fluo-3 (25 μl/well of Fluo-3 AM at 4 μM, Molecular Probes F-1241, in Bath 1 buffer containing 1 mM Probenecid) is added to the 25 μl of Bath 1 remaining in each well after the plate wash and the dye is loaded at 37° C. in the tissue culture incubator for 60-90 min. The fluorescent dye is removed using the plate washer with Bath 1 containing 1 mM Probenecid, leaving 25 μl/well of this solution after the wash. Alternatively, cells can be loaded with the calcium indicator from Molecular Devices (Calcium 3 Assay Reagents, Cat # R7181) adding 5 μl of a 5× solution dye in Bath 1 containing 1 mM Probenecid (10 ml per dye flask cat# R7182 to generate a solution 20×) to 20 μl of the same buffer. After loading for 60 min, the experiment can be run without having to remove the dye.
(§4) Compounds are prepared at a 2× fold concentration in a 96-well plate (round bottom, Costar Corning cat# 3656), by reconstituting the pre-spotted compounds in bath 1 containing 1 mM probenecid. The final concentration DMSO is 0.5%, and the amount of DMSO is normalized across the assay plate. To determine an agonist action of the compounds on muscarinic receptors, the reconstituted compounds are added (25 μl compound/well) to the cell assay plate (containing 25 μl/well) using the multi-channel robotic system of the FLIPR 3 Instrument (Molecular Devices, Sunnyvale, Calif.). To determine a functional inhibitory action of the compounds on muscarinic receptors, the reconstituted compounds are added (25 μl compound/well) to the assay plate and pre-incubated for 15 min prior to adding 25 μl of Carbachol at 3× the EC80 for each muscarinic subtype. Alternatively, the compounds can be co-applied simultaneously with the agonist. In both assay modes, the fluorescence is recorded for 60 sec (excitation wavelength is […] and emission wavelength 540 nm) using the FLIPR 3 instrument.
(§5) The potency, efficacy and selectivity of the muscarinic compounds were evaluated by screening the compound activity across the whole family (M1 to M5 cells). Compounds were also screened for activity on other proteins such as other GPCRs and ion channels to determine selectivity on M4 receptors.

M1 muscarinic receptor = target: T2, M1 muscarinic receptor (Homo sapiens, UniProt P11229); test: Functional mobilization of intracellular calcium (FLIPR) in M1-CHO cells; type: cell-based; conditions: M1 receptor, calcium mobilization; for Emax: read-out: M1 Efficacy
T2 construct: expressed in transfected cells; host or cells: CHO (M1-CHO)
T2 sequence (P11229 1-460): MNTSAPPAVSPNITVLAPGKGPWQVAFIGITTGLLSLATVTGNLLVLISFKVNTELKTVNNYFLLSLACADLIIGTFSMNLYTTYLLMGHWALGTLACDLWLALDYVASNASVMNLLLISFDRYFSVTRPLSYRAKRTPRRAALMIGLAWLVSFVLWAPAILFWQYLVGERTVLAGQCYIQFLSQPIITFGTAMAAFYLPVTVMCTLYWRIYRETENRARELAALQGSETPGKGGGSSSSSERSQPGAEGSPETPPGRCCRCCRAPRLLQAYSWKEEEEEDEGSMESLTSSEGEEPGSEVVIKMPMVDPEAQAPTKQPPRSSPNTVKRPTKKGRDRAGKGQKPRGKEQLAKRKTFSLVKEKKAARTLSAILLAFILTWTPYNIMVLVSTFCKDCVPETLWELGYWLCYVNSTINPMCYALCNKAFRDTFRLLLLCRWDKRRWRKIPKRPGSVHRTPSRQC
Method: as §1, §2, §3, §4, §5

Compound	M4 Activity (M4 muscarinic receptor)	Emax (M4 muscarinic receptor) [%]	M1 Activity (M1 muscarinic receptor)	Emax (M1 muscarinic receptor) [%]
CCOC(=O)N1CCC(CN2CCC3(CC2)CN(C(C)=O)c2ccc(OC(F)(F)F)cc23)CC1 [compound 21]	x (activity was measured to be greater than 1.0 μM)	< 65	xx (activity was measured to be between 0.1 μM and 1.0 μM)	< 65
CCOC(=O)N1CCC(N2CCC3(CC2)CN(C(=O)N2CCCC2)c2ccc(F)cc23)CC1 [compound 22]	x (activity was measured to be greater than 1.0 μM)	< 65	xxx (activity was measured to be less than 0.1 μM)	65 to 85
Cc1ccc2c(c1)C1(CCN([C@@H]3C[C@@H]4CC[C@@H]3C4)CC1)CN2 [compound 23]	x (activity was measured to be greater than 1.0 μM)	< 65	xx (activity was measured to be between 0.1 μM and 1.0 μM)	< 65
Cc1cc(C(=O)N2CC3(CCN(C4CC5CCC(C4)N5C(=O)OC(C)C)CC3)c3cc(F)ccc32)nn1C (centres unmarked) [compound 24]	x (activity was measured to be greater than 1.0 μM)	< 65	xx (activity was measured to be between 0.1 μM and 1.0 μM)	< 65
COCCOC(=O)N1CCC(CN2CCC3(CC2)CN(C(C)=O)c2ccc(F)cc23)CC1 [compound 26]	xx (activity was measured to be between 0.1 μM and 1.0 μM)	< 65	xxx (activity was measured to be less than 0.1 μM)	65 to 85
CCC1CCC(N2CCC3(CC2)CN(C(C)=O)c2ccc(F)cc23)CC1 (centres unmarked) [compound 27]	xxx (activity was measured to be less than 0.1 μM)	65 to 85	xxx (activity was measured to be less than 0.1 μM)	65 to 85
CCOC(=O)N1C2CCC1CC(N1CCC3(CC1)CN(C(=O)O[C@@H]1CCOC1)c1ccc(F)cc13)C2 (some centres unmarked) [compound 28]	xx (activity was measured to be between 0.1 μM and 1.0 μM)	65 to 85	xxx (activity was measured to be less than 0.1 μM)	> 85
CC(=O)N[C@H]1CC2(CCN(CC3CC4CCC3CC4)CC2)c2ccccc21 (some centres unmarked) [compound 29]	xxx (activity was measured to be less than 0.1 μM)	> 85	xxx (activity was measured to be less than 0.1 μM)	> 85
CCOC(=O)N1CCC(N2CCC3(CC2)CN(C(=O)OCC(C)C)c2ccc(F)cc23)CC1 [compound 30]	xxx (activity was measured to be less than 0.1 μM)	> 85	xxx (activity was measured to be less than 0.1 μM)	> 85
CCOC(=O)N1CCC(N2CCC3(CC2)C(=O)N(C)c2ccccc23)CC1 [compound 31]	xxx (activity was measured to be less than 0.1 μM)	65 to 85	xxx (activity was measured to be less than 0.1 μM)	> 85
CN(C)C(=O)N1CC2(CCN(C3CC4CCC(C3)N4C(=O)OCCF)CC2)c2cc(F)ccc21 (centres unmarked) [compound 32]	xxx (activity was measured to be less than 0.1 μM)	65 to 85	xxx (activity was measured to be less than 0.1 μM)	> 85
COCCOC(=O)N1C2CCC1CC(N1CCC3(CC1)CN(C(=O)OC)c1ccc(F)cc13)C2 (centres unmarked) [compound 33]	xxx (activity was measured to be less than 0.1 μM)	> 85	xxx (activity was measured to be less than 0.1 μM)	> 85
CCOC(=O)N1CCC(CN2CCC3(CC2)CC(=O)Nc2ccccc23)CC1 [compound 34]	xx (activity was measured to be between 0.1 μM and 1.0 μM)	> 85	xxx (activity was measured to be less than 0.1 μM)	65 to 85
CC(=O)N1CC2(CCN(C3CC4CCC(C4)C3)CC2)c2cc(F)ccc21 (centres unmarked) [compound 35]	xx (activity was measured to be between 0.1 μM and 1.0 μM)	> 85	xxx (activity was measured to be less than 0.1 μM)	> 85
CCCOC(=O)N1CCC(CN2CCC3(CC2)C[C@H](NC(C)=O)c2ccccc23)CC1 [compound 36]	xx (activity was measured to be between 0.1 μM and 1.0 μM)	> 85	xxx (activity was measured to be less than 0.1 μM)	65 to 85
Clc1ccc2c(c1)C1(CCN(C3CCOCC3)CC1)CN2 [compound 37]	xx (activity was measured to be between 0.1 μM and 1.0 μM)	> 85	xxx (activity was measured to be less than 0.1 μM)	65 to 85
CCOC(=O)N1CCC(N2CCC3(CC2)CN(C(=O)OCCOC)c2ccc(F)cc23)CC1 [compound 38]	xxx (activity was measured to be less than 0.1 μM)	> 85	xxx (activity was measured to be less than 0.1 μM)	> 85
CCOC(=O)N1CCC(N2CCC3(CC2)CN(C(=O)N(C)C)c2ccc(F)cc23)CC1 [compound 39]	xx (activity was measured to be between 0.1 μM and 1.0 μM)	> 85	xxx (activity was measured to be less than 0.1 μM)	65 to 85
CCOC(=O)N1CCC(N2CCC3(CC2)CN(C(=O)c2ccc(OC)cc2)c2ccc(F)cc23)CC1 [compound 41]	xxx (activity was measured to be less than 0.1 μM)	> 85	xxx (activity was measured to be less than 0.1 μM)	> 85
CCOC(=O)N1C2CCC1CC(N1CCC3(CC1)COc1ccc(F)cc13)C2 (centres unmarked) [compound 42]	xx (activity was measured to be between 0.1 μM and 1.0 μM)	> 85	xxx (activity was measured to be less than 0.1 μM)	> 85
